The values below come from US12377067B2, “Methods of treating PAH with combinations of ralinepag and other agents” (Arena Pharmaceuticals, Inc., priority 2016, dated 2025).

Assay [1] has as its system human PASMCs from PAH patients. The assay is described as follows: Cell proliferation assay (MTS), serum-induced growth. Type of assay: cell-based. Particulars: for inhibition at 0.1 µM: Homo sapiens, PASMC, 96 h, compared to FBS and DMSO, 4 days; for inhibition at 0.1 µM / inhibition of serum-induced growth (significance): drug alone at 100 nM; for IP receptor dependence of the effect: cyclic AMP and cell proliferation assays in human PASMCs from PAH patients; for inhibition of serum-induced growth (significance): compared to serum and DMSO alone. The procedure:
Primary cell lines of distal PASMCs from PAH patients were derived from explanted lungs as previously described (Falcetti et al., 2010; Bubb et al., 2014). These cells have an abnormal proliferative capacity when grown in culture (Zhang et al., 2007; Falcetti et al., 2010). Frozen cells were revived and grown in human smooth muscle basal medium-2 (SMBM; Lonza, Slough, UK) supplemented with 9% fetal bovine serum (FBS) at 37° C. in a humidified atmosphere of 5% CO2. After reaching confluence, cells were washed with phosphate-buffered saline (PBS) and treated with trypsin-EDTA for further passage. Only cells between passages 3 and 10 were used for experiments.
Comparative concentration-dependent effects of IP receptor agonists on cell proliferation were assessed on human PASMCs derived from PAH patients. Cells were seeded onto 96-well plates at a density of 1×10^4 cells/ml and grown at 37° C. in a humidified CO2 incubator in human smooth muscle basal medium-2 (SMBM; Lonza) containing 9% FBS and penicillin-streptomycin (Pen/Strep; 50 units/ml). After 24 hours, cells were growth arrested by incubating for 48 hours in fresh media containing no added serum. Media was then subsequently removed, replaced with human SMBM containing 9% serum with or without 0.1% DMSO in the absence and presence of the IP receptor agonist (either ralinepag, iloprost, treprostinil or MRE-269) and cells treated with the IP receptor agonist for 4 days over the concentration range ([…]). Responses were directly compared in cells containing the IP receptor antagonist, RO-1138452 (1 μM), which was added to cells 30-60 minutes prior to the addition of the IP agonist and remained throughout the experiment. Cells incubated with no added serum over the same time period (4 days) acted as the time control.
Cell proliferation was obtained using an MTS proliferation kit (Promega), a colorimetric method for determining the number of viable cells which is based on the cleavage of the tetrazolium salt MTS to formazan by cellular mitochondrial dehydrogenases. An increase in cell number leads to a proportional increase in the amount of formazan dye formed which is quantified by measuring the absorbance of the dye solution at 490 nm. In each case background absorbance was corrected by subtracting the average absorbance from the “no cell” control wells from all other absorbance values.
Cell proliferation was then normalized to the growth response induced by FBS alone, which was taken as the FBS response minus the time control (=100% growth at 4 days). Growth responses induced in presence of solvent±drugs is shown as % change in cell proliferation relative to the FBS response alone in all figures.
All data are presented as mean±standard error of mean (S.E.M) of at least 5 observations. Agonist log-concentration curves were constructed and fitted using the non-linear fitting routine in GraphPad Prism 4 or 6 (San Diego, Calif., USA). The concentration of agonist causing 50% of the maximal response (Emax) was expressed as the negative log (pEC50) and the mean EC50 calculated. P values <0.05 are considered statistically significant.

For assay [2], the system named is human PASMCs from PAH patients. The assay is described as follows: Cyclic AMP assay. Type of assay: cell-based. The note with it: cyclic AMP assay. The method, then:
Human PASMCs from PAH patients were grown to 70-80% confluence in 12 well plates in DMEM/F12 containing 9% foetal bovine serum (FBS), penicillin (50 U/ml)/streptomycin (50 ag/ml). To assess the time-course of cAMP elevation, cells were stimulated with 100 nM ralinepag for varying times (0.5, 1, 2, 4, 8, 24, 48 hours). This dose of ralinepag was chosen on the basis that it was close to the EC50 for cAMP generation in preliminary experiments. In other experiments, the IP receptor agonist was added for a specified time (60 minutes) over a full concentration range (0.1-10,000 nM) in the absence and presence of […] of the IP receptor antagonist, RO-1138452. The antagonist is added 30 minutes beforehand and remained throughout.
To extract cyclic AMP, the medium was aspirated and PASMCs cells incubated in 0.1 M HCl for 20 minutes on ice followed by centrifugation at 1000 g for 10 minutes at 4° C. The protein concentration in the supernatant was determined using a […] protein assay (BCA, Novagen, EmD Chemicals, CA, USA). Intracellular cyclic AMP was measured using a competitive enzyme immunoassay 96 well plate kit (ADI-900-163, Enzo Life Sciences, Exeter, UK) and the assay performed according to the manufacturer's instructions. Each sample was run in duplicate and data expressed as pmol of cAMP per mg of total protein for each individual sample. Basal levels were subtracted from each agonist concentration data point. Given the large variation (˜15-fold) in cAMP generation from different patient samples, data was also normalized to the peak cyclic AMP response (assigned 100%) in each cell isolate.

A further assay has as its target human IP receptor (Homo sapiens, UniProt P43119). Particulars: cited from earlier work.
Another assay deals with PDE1. The note with it: cited from earlier work.

Each structure is given as a SMILES string.

human IP receptor, sequence (P43119 whole entry): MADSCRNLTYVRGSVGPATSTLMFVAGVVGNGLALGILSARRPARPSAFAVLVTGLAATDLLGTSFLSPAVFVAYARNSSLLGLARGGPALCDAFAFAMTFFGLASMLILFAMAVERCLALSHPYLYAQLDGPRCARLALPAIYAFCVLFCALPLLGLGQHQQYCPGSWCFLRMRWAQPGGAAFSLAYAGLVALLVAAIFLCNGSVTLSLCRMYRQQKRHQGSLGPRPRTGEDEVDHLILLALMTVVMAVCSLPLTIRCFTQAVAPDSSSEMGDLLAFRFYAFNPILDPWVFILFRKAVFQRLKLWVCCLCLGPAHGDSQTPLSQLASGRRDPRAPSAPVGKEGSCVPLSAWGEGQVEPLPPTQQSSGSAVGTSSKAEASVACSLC

Broadly, the inhibition is the share of the control response that was lost under treatment. Low values mean a weak effect, high ones a strong effect. Turning to `CCCNS(=O)(=O)Nc1ncnc(OCCOc2ncc(Br)cn2)c1-c1ccc(Br)cc1` [macitentan, reference compound], the inhibition at 0.1 µM in assay [1] is ~12%.
The term Ki denotes the dissociation constant of the complex between target and ligand, obtained from inhibition or displacement. With `CC(C)N(CCCCOCC(=O)O)c1cnc(-c2ccccc2)c(-c2ccccc2)n1` [MRE-269, [4[(5,6diphenylpyrazinyl)(1methylethyl)amino]butoxy]acetic acid, reference compound], the “maximal effect compared with treprostinil” value in assay [1] (cell proliferation assay) and in assay [2] was “weaker maximal effects” throughout. Moreover, in assay [1], the “IP receptor dependence of the effect” value is recorded as “selective IP receptor agonists”. For the same molecule, the inhibition constant (Ki) on human IP receptor is 20 nM.
Consider `COc1ccccc1Oc1c(NS(=O)(=O)c2ccc(C(C)(C)C)cc2)nc(-c2ncccn2)nc1OCCO` [bosentan, reference compound], for which the “inhibition of serum-induced growth (significance)” value (“inhibition … (significance)” below) in assay [1] is “did not cause a significant inhibition”.
As for `COC(=O)N(C)c1c(N)nc(-c2nn(Cc3ccccc3F)c3ncccc23)nc1N` [riociguat, reference compound], in assay [1], the inhibition at 0.1 µM was ~15%.
Take `CC(C)N(CCCCOCC(=O)NS(C)(=O)=O)c1cnc(-c2ccccc2)c(-c2ccccc2)n1` [selexipag, 2-{4-[(5,6-diphenylpyrazin-2-yl)(propan-2-yl)amino]butoxy}-N-(methanesulfonyl)acetamide]: the Ki on human IP receptor was 260 nM.
`CCCCC[C@H](O)CC[C@@H]1[C@H]2Cc3cccc(OCC(=O)O)c3C[C@H]2C[C@H]1O` [treprostinil, reference compound]: the “antiproliferative response in the presence of an IP receptor antagonist” value in assay [1] (IP receptor antagonist RO-1138452 (1 μM)) is “only weakly inhibited”. In addition, in assay [1], the “IP receptor dependence of the effect” value was “IP-independent mechanisms” and the “inhibition … (significance)” value was “significantly inhibited growth”.
For `CC#CCC(C)[C@H](O)/C=C/[C@@H]1[C@H]2C/C(=C/CCCC(=O)O)C[C@H]2C[C@H]1O` (some centres unmarked) [iloprost, reference compound], the “IP receptor dependence of the effect” value in assay [1] is recorded as “IP-independent mechanisms”.
Take `CCCc1nn(C)c2c(=O)[nH]c(-c3cc(S(=O)(=O)N4CCN(C)CC4)ccc3OCC)nc12` [sildenafil, reference compound]: the “inhibition … (significance)” value in assay [1] is recorded as “did not significantly inhibit growth”. In addition, at PDE1, the inhibitory constant (Ki) was 40 nM.
